# Assay results: US20070276025A1, “Indirubin-Type Compounds, Compositions, and Methods for Their Use” (priority 2003, published 2007)
# Where two headings read alike, the source gives them in different places.
# Tests used:
# [1] = tested on: GSK-3α (Tyr276) / GSK-3β (Tyr216); assay: Tyrosine phosphorylation of GSK-3 in SH-SY5Y cells (Western blot); format: cell-based, human; conditions: 1 μM, 12 hr
# Excerpt: GSK-3α and GSK-3β activity is enhanced by the phosphorylation of a specific tyrosine residue (Tyr276 and Tyr216, respectively) (Hughes et al. (1993) EMBO J. 12: 803-808; Dajani et al. (2003) EMBO J. 22: 494-501). The tyrosine kinase responsible for this phosphorylation in mammals is unknown, but there is some evidence that it indirectly depends on GSK-3 activity (Bhat et al. (2000) Proc. Natl. Acad. Sci. U.S.A. 97: 11074-11079; Shaw et al. (1997) FEBS Lett. 416: 307-311). […] SH-SY5Y cells were exposed to IO, MeIO, BIO and MeBIO for 12 hr and the phosphorylation of Tyr276 (GSK-3α) and Tyr216 (GSK-3β) was estimated by Western blotting with phospho-specific antibodies. […] This was accompanied by an increased level in total GSK-3β, total β-catenin, and dephospho-&catenin.
# Xenopus laevis embryos = assay: Maternal Wnt pathway activation in Xenopus laevis embryos (phenotype, RT-PCR of animal caps); format: in vivo; conditions: for embryo phenotype (anteriorization): BIO 5-50 μM, MeBIO 50 μM, LiCl 0.3 M, treated before stage 8, tadpole stage
# Description: Xenopus laevis embryos obtained by in vitro fertilization were cultured in 0.1×MMR and staged (Nieuwkoop & Faber (1967) Normal table of Xenopus Laevis (North Holland Publishing Co, Amsterdam, The Netherlands)). […] For experiments with BIO, the reagent was added to the indicated final concentrations at the 4 cell stage and washed away at stage 8. Embryos were subsequently allowed to develop to tadpole stage. RNA injections were performed at 2-4 cell stage with the indicated amounts of in vitro transcribed RNA in a […] volume. Animal caps were dissected at blastula (stage 9) and cultured to neurula (stage 18) for RT-PCR analysis-. The RNA expression vectors were pCS2+DN Xtcf-3, encoding amino acids 88-553 of Xtcf-3 (Vonica et al. (2000) Dev. Biol. 217: 230-243), MTPA2 (Zeng et al. […] RT-PCR was performed as previously described (Chang et al. (1997) Development 124: 827-837), with the following oligonucleotides: for ODC sense [NT] and antisense 5° [NT] 3'; for nrp1 sense [NT] and antisense [NT]; for XAG1 sense [NT] and antisense 5° [NT] 3'; for en2 sense 5° [NT] 3' and antisense [NT]; for Xhoxb9 sense [NT] and antisense [NT]; for chordin sense 5° [NT] 3' and antisense [NT]. Phenotypes of embryos treated with BIO or LiCl were compared (FIG. 8B-G). […] The Wnt pathway can ectopically induce dorsal genes, like the direct Wnt target siamois ([…] et al. (1996) Development 122: 3055-3065), and the Spemann organizer marker and siamois target chordin (Kessler (1997) Proc. Natl. Acad. Sci. U.S.A. 94: 13017-22). […] Another outcome of ectopic Wnt pathway activation in Xenopus is the indirect induction of neural tissue in animal cap explants (Baker et al. (1999) Genes Dev. 13: 3149-3159). Explants from embryos treated with LiCl (FIG. 8I, lanes 4, 5), BIO (lanes 6, 7), or injected with RNA for the neuralizing factor noggin (lane 3), were compared by RT-PCR for various neural and anterior markers.
# AhR [2] = assay: AhR nuclear translocation in Hepa-1 and ARNT mutant cells (immunofluorescence); format: cell-based, mouse; conditions: 25 μM, 90 min, Hepa-1 wild-type and ARNT mutant cells
# [3] = tested on: 5L (AhR +/+) hepatoma cells; assay: Cell viability MTT assay, 5L cells; format: cell-based, mouse; conditions: range of concentrations, 24 and 48 hr
# [4] = tested on: BP8 (AhR −/−) hepatoma cells; assay: Cell viability MTT assay, BP8 cells; format: cell-based, mouse; conditions: range of concentrations, 24 and 48 hr
# [5] = tested on: 5L (AhR +/+) hepatoma cells; assay: FACS cell cycle analysis, 5L cells; format: cell-based, mouse; conditions: 10 μM indirubins or 100 nM TCDD, 24 hr
# [6] = tested on: p27^KIP1 in 5L (AhR +/+) cells; assay: p27KIP1 expression by Western blotting, 5L cells; format: cell-based, mouse; conditions: 10 μM indirubins or 0.1 μM TCDD, 24 hr
# [7] = Solubility (qualitative remark); conditions: relative to parent indirubins / 3′-oximes
# GSK-3 [8] = assay: β-catenin phosphorylation on GSK-3 specific sites in COS-1 cells (Western blot); conditions: 5 μM indirubins or 20 mM LiCl, 24 hrs
# GSK-3 [9] = assay: β-catenin stabilization in AhR- or ARNT-deficient Hepa cell lines (Western blot); conditions: 10 μM BIO, 50 μM MeBIO, 24 hrs
# GSK-3α/β = GSK-3α/β kinase assay (GS-1 peptide, 15 μM ATP); format: biochemical, porcine
# CDK1/cyclin B = CDK1/cyclin B kinase assay (histone H1, 15 μM ATP); format: biochemical, starfish (Marthasterias glacialis)
# CDK5/p25 = CDK5/p25 (Homo sapiens, UniProt Q00535); assay: CDK5/p25 kinase assay (histone H1, 15 μM ATP); format: biochemical, mammalian; conditions: read-out: IC50 CDK5/p25
# Sequence of CDK5/p25 (Q00535 whole entry, species assumed): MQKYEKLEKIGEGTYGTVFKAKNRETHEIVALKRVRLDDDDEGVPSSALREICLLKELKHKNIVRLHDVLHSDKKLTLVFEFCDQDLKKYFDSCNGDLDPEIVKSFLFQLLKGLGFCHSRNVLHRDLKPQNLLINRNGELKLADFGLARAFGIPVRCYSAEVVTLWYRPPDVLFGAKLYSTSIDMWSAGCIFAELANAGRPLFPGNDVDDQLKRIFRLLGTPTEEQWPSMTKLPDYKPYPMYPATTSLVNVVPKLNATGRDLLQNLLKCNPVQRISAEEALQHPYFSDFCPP
# Sequence of CDK5/p25 (Q15078 99-307 partner limits assumed, species assumed): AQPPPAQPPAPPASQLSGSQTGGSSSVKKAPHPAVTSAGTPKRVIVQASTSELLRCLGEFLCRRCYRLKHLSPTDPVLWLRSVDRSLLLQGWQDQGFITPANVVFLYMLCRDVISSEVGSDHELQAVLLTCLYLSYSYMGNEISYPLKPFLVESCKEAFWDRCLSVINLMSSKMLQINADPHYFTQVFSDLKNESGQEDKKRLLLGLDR
# [10] = tested on: BP8 (AhR −/−) hepatoma cells; assay: FACS cell cycle analysis, BP8 cells; format: cell-based, mouse; conditions: 10 μM indirubins or 100 nM TCDD, 24 hr
# Description: Flow cytometry analysis (Coulter EPIX XL2, Beckman, Calif., USA) of cellular DNA content was performed on ethanol-fixed cell suspensions after ribonuclease A III treatment (Sigma) and propidium iodide (Sigma) staining, as previously described (French et al. (1985) Cytometry 6: 47-53). Percentages of cells in G0/G1, S and G2/M phases of cell cycle were then calculated on the basis of DNA distribution histograms provided by the software manufacturer.
# Both 5L and BP8 cell lines were treated with 10 μM IO, MeIO, BIO, MeBIO or 100 nM TCDD for 24 hr.
# AhR [11] = biological target: T1, AhR (Homo sapiens, UniProt P35869)
# T1 sequence (P35869 11-848): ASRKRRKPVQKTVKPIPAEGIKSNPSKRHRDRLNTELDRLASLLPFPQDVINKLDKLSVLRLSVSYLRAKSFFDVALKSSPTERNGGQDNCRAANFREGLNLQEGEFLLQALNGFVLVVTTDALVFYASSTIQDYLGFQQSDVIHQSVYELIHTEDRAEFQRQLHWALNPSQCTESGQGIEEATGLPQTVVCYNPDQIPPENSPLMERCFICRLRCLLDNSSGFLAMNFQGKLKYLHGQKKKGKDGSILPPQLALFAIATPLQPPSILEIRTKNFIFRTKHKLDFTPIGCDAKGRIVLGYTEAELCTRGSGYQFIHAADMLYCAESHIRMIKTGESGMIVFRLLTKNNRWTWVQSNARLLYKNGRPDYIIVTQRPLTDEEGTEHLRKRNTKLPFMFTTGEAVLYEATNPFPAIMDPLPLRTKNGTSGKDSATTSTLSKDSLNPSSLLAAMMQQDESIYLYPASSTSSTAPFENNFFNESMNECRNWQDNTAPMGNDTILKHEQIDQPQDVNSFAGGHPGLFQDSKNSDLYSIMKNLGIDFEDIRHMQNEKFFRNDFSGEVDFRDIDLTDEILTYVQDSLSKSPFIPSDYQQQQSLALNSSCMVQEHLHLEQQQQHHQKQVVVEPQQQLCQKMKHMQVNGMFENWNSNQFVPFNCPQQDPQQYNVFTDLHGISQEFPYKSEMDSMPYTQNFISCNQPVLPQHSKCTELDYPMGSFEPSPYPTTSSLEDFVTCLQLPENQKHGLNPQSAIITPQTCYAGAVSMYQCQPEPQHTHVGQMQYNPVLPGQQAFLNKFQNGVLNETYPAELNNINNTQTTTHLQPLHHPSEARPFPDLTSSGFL
# T1 sequence (P27540 whole entry partner): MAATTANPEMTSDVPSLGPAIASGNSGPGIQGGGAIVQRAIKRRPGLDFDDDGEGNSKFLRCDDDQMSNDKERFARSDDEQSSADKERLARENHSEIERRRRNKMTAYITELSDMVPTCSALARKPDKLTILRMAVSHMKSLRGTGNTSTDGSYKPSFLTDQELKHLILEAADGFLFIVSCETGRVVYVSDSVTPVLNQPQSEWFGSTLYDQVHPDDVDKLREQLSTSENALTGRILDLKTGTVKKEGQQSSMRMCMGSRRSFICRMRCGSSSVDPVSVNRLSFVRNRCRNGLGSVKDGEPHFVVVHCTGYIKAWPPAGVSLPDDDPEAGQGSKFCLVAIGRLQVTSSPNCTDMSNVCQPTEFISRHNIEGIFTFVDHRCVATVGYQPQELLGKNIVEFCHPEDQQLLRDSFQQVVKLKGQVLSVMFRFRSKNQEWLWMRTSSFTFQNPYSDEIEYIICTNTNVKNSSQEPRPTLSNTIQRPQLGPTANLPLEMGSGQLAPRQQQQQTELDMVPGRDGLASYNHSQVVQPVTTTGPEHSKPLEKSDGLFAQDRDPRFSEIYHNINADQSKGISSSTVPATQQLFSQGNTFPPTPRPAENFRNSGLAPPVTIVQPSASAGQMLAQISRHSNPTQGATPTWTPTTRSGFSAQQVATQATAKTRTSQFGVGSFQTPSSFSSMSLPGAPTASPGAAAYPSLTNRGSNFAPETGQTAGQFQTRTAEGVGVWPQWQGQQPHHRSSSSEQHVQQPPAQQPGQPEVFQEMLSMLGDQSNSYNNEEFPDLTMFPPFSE
# AhR [12] = biological target: T2, AhR (Mus musculus, UniProt P30561); conditions: read-out: EC50 AhR (hepatoma cell line); Table 4; EGFP at 24 hours
# T2 sequence (P30561 1-848): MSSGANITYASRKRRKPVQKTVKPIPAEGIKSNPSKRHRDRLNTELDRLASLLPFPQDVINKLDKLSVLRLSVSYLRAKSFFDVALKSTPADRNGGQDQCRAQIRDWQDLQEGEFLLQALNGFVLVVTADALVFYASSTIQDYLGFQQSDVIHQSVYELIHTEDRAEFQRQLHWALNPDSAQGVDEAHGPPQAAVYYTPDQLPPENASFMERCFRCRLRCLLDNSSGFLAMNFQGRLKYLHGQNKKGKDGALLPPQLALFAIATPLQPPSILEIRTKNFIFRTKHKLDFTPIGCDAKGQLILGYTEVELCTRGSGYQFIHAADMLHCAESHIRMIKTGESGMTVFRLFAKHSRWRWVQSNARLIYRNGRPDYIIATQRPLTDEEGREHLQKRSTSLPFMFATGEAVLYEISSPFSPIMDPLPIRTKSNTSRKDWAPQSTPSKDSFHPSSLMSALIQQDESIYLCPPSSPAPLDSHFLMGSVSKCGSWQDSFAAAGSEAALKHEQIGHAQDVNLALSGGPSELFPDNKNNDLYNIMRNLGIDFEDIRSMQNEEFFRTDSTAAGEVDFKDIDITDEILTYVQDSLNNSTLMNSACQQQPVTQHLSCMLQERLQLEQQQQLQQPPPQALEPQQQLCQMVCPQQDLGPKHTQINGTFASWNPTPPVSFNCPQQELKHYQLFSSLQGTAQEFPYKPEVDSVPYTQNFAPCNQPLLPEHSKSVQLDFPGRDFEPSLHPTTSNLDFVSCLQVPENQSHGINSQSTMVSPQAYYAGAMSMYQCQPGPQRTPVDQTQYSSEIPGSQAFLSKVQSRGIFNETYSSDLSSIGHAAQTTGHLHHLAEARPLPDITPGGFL
# CDK5/p35 = CDK5/p35 (Homo sapiens, UniProt Q00535); design: made in house; conditions: Hoessel et al. (1999); cited from earlier work
# Sequence of CDK5/p35 (Q00535 whole entry, species assumed): as the sequence (Q00535 whole entry, species assumed) above
# Sequence of CDK5/p35 (Q15078 whole entry partner, species assumed): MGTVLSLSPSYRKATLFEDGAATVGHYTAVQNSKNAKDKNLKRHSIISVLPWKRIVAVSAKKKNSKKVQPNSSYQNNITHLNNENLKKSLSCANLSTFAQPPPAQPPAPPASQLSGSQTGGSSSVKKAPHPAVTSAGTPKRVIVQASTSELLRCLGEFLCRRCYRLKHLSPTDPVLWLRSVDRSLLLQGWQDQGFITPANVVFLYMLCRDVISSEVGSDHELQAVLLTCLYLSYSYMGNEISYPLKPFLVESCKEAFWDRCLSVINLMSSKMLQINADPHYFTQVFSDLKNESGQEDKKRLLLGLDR
# AhR [13] = biological target: T1, AhR; assay: Yeast AhR reporter assay (β-galactosidase)
# [14] = Table 1, read-out: IC50 GSK-3 α/β
# [15] = Table 5, read-out: IC50 GSK-3α/β
# [16] = Table 7, GSK-3, read-out: IC50exp
# [17] = Table 5, read-out: IC50 CDK1/cyclin B
# [18] = Table 4, read-out: IC50 CDK1/cycin B
Structure (SMILES),nuclear translocation of AhR (AhR [2]),accumulation of 5L cells in G1 phase [5],p27^KIP1 expression in 5L cells [6],IC50 (GSK-3α/β; [16]),"IC50 (GSK-3α/β; Table 4, read-out: IC50 GSK-3)",IC50 (CDK1/cyclin B; [18]),EC50 (AhR [11]),EC50 (AhR [12]),further results
O=C1Nc2cc(Br)ccc2/C1=C1/Nc2ccccc2/C1=N\O [7a],triggered ARNT-independent nuclear redistribution of AhR,modest (but detectable),"modest, but detectable increase",–,–,–,–,–,"level of tyrosine phosphorylation of both GSK-3 isoforms [1]: dramatically reduced; embryo phenotype (anteriorization) (Xenopus laevis embryos): phenocopies the LiCl effect in a dose-dependent manner; induction of siamois and chordin in animal cap explants (RT-PCR) (Xenopus laevis embryos; Li+ 0.3 M, BIO 50 μM): shows induction of both genes; effect on anterior markers otx2 and xag1 in animal cap explants (RT-PCR) (Xenopus laevis embryos; even at the lowest concentration tested (5 μM)): strongest effect on anterior markers; survival of 5L cells (MTT) [3]: equally sensitive to IO and BIO; survival of BP8 cells (MTT) [4]: equally sensitive to IO and BIO; solubility (in words) [7]: increased solubility; unphosphorylated β-catenin level (GSK-3 [8]): major increase; β-catenin stabilization (GSK-3 [9]): triggered a robust β-catenin stabilization in both cell lines"
"O=C1Nc2cc(Br)ccc2C1=C1Nc2cc(Br)ccc2C1=NO [13b, 6,6′-dibromo-indirubin-3′-oxime]",–,–,–,120 nM,–,–,–,–,"IC50 (GSK-3α/β; [14]): 120 nM; IC50 (GSK-3α/β; [15]): 120 nM; IC50 (CDK1/cyclin B; Table 1, read-out: IC50 CDK1/cyclin B): 17000 nM; IC50 (CDK1/cyclin B; [17]): 17000 nM; IC50 (CDK5/p25; Table 1): 1300 nM; IC50 (CDK5/p25; Table 5): 1300 nM; solubility (in words) [7]: increased solubility"
"CN1C(=O)C(=C2Nc3ccccc3C2=NO)c2ccc(Br)cc21 [13c, 6-Bromo-1-methylindirubin-3′-oxime]",caused redistribution of AhR to the nucleus,very striking accumulation,very effective p27^KIP1 inducers,–,44000 nM,92000 nM,20 nM,93 nM,"IC50 (GSK-3α/β; [14]): 44000 nM; IC50 (GSK-3α/β; [15]): > 100000 nM; IC50 (CDK1/cyclin B; [17]): 92000 nM; IC50 (CDK5/p25; Table 1): > 100000 nM; IC50 (CDK5/p25; Table 5): > 100000 nM; level of tyrosine phosphorylation of both GSK-3 isoforms [1]: None of these changes were observed; embryo phenotype (anteriorization) (Xenopus laevis embryos): remains without effect; survival of 5L cells (MTT) [3]: apparently not affected; survival of BP8 cells (MTT) [4]: apparently not affected; accumulation of BP8 cells in G1 phase [10]: but not of AhR −/− cells (BP8); unphosphorylated β-catenin level (GSK-3 [8]): neither the kinase-inactive MeBIO nor IO, led to a major increase; β-catenin stabilization (GSK-3 [9]): inactive"
"O=C1Nc2ccc(S(=O)(=O)O)cc2/C1=C1/Nc2ccccc2C1=O [I5S, indirubin-5-sulphonate]",–,–,–,–,–,–,–,–,IC50 (CDK5/p35): 60 nM
"O=C1Nc2ccc(I)cc2/C1=C1/Nc2ccccc2/C1=N\O [compound 19, 5-iodo-indirubin-3′-oxime, reference compound]",triggered ARNT-independent nuclear redistribution of AhR,–,–,–,–,25 nM,50 nM,5 nM,–
"O=C1Nc2ccccc2/C1=C1/Nc2ccc(Br)cc2C1=O [compound 20, 5′-bromo-indirubin, reference compound]",–,–,–,350 nM,350 nM,510 nM,≥ 100 nM,51 nM,–
"O=C1Nc2ccc(Br)cc2/C1=C1/Nc2ccc(Br)cc2C1=O [compound 21, 5,5′-dibromo-indirubin, reference compound]",–,–,–,250 nM,250 nM,600000 nM,> 200 nM,47 nM,–
"Clc1cc2c(cc1Cl)Oc1cc(Cl)c(Cl)cc1O2 [compound 25, 2,3,7,8-tetrachlorodibenzo-p-dioxin, reference compound]",–,triggered an AhR-dependent arrest in G1,up-regulates the expression of both CYP1A1 and p27^KIP1 in the 5L,–,> 15000 nM,> 15000 nM,–,0.015 nM,EC50 (AhR [13]): 25 nM
